Results as given in patent publication US20230144824A1, “1H-PYRAZOLO[4,3-d]PYRIMIDINE COMPOUNDS AS TOLL-LIKE RECEPTOR 7 (TLR7) AGONISTS” (BRISTOL-MYERS SQUIBB COMPANY, priority 2020, published 2023).

Legend:
human TLR7 = molecular target: T1, human TLR7 (Homo sapiens, UniProt Q9NYK1); test: Human TLR7 agonist activity assay (HEK-Blue TLR7 SEAP reporter); type: cell-based; details: HEK-Blue TLR7 cells, 18 h treatment, average where assay performed multiple times, read-out: hTLR7 Agonism EC50
T1 construct: host or cells: HEK-Blue TLR7 cells (engineered human embryonic kidney cells)
T1 sequence (Q9NYK1 27-1049): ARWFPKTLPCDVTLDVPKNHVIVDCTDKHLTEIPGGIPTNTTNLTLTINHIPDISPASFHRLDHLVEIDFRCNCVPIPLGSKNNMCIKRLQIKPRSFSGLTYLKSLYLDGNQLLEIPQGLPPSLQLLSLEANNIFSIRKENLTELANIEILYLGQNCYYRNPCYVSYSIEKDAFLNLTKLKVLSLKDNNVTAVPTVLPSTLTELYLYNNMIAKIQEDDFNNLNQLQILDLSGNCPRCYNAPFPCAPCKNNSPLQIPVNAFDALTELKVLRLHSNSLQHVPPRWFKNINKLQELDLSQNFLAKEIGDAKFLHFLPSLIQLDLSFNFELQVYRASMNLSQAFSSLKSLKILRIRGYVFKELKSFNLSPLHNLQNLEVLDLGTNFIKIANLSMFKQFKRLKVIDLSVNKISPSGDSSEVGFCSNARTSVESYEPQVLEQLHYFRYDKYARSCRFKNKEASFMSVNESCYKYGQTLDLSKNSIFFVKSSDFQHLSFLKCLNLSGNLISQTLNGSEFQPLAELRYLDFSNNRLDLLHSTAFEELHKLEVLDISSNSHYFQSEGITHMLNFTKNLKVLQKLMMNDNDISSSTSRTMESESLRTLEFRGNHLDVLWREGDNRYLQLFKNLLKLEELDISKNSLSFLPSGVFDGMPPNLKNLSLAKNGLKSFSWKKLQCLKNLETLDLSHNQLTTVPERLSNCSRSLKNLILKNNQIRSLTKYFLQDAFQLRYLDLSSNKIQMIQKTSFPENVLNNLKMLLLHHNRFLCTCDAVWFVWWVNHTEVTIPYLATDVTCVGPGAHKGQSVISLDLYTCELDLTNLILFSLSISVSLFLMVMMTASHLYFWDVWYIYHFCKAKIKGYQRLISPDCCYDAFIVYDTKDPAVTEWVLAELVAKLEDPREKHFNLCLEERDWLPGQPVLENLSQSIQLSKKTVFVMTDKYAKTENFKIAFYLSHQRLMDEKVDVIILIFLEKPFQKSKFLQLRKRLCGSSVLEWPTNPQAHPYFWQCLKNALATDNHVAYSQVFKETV
Summary of the method: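 HEK-Blue TLR7 cells (15,000/well) treated with compound for 18 h at 37 °C, 5% CO2. Secreted SEAP measured with Quanti-Blue, 30 min, OD 620 nm. EC50 taken as concentration giving half-maximal response between baseline and maximum.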

CD69 = test: Induction of CD69 in human whole blood; type: cell-based; details: Homo sapiens, 17 h, 100% set to 1 uM of resiquimod, average where assay performed multiple times, read-out: hWB CD69 EC50
Summary of the method: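 Heparinized human whole blood treated with TLR7 agonist at final 1 uM and incubated 17 h at 37° C. CD69 surface staining alongside CD14 and CD19, then fix/lysis and flow cytometry on iQuePlus. Curves fitted with 1 uM resiquimod set as 100%.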

In the case of COc1cc(C2CCN(C3CC4(COC4)C3)CC2)cnc1Cn1ncc2nc(N)nc(NCC3CC4(CC4)C3)c21 (centres unmarked) [Compound 154, 1-{[3-methoxy-5-(1-{2-oxaspiro[3.3]heptan-6-yl}piperidin-4-yl)pyridin-2-yl]methyl}-N7-({spiro[2.3]hexan-5-yl}methyl)-1H-pyrazolo[4,3-d]pyrimidine-5,7-diamine], the EC50 (human TLR7) is reported as 34 nM and the EC50 (CD69) is reported as 7.1 nM.

Compound COc1cc(C2CCN(C3CCOCC3)CC2)cnc1Cn1ncc2nc(N)nc(NCC3CC4(CC4)C3)c21 [Compound 157, 1-({3-methoxy-5-[1-(oxan-4-yl)piperidin-4-yl]pyridin-2-yl}methyl)-N7-({spiro[2.3]hexan-5-yl}methyl)-1H-pyrazolo[4,3-d]pyrimidine-5,7-diamine] has an EC50 (human TLR7) of 50.8 nM and an EC50 (CD69) of 37 nM.

Work on COc1cc(C2CCN(C3CNC3)CC2)cnc1Cn1ncc2nc(N)nc(NCC3CC4(CC4)C3)c21 [Compound 158, 1-({5-[1-(azetidin-3-yl)piperidin-4-yl]-3-methoxypyridin-2-yl}methyl)-N7-({spiro[2.3]hexan-5-yl}methyl)-1H-pyrazolo[4,3-d]pyrimidine-5,7-diamine] yielded an EC50 (human TLR7) of 224 nM and an EC50 (CD69) of 69.4 nM.

With COc1cc(C2CCN(C)CC2)cnc1Cn1ncc2nc(N)nc(NCC3CC4(CC4)C3)c21 [Compound 159, 1-{[3-methoxy-5-(1-methylpiperidin-4-yl)pyridin-2-yl]methyl}-N7-({spiro[2.3]hexan-5-yl}methyl)-1H-pyrazolo[4,3-d]pyrimidine-5,7-diamine] the EC50 (human TLR7) was 62 nM and the EC50 (CD69) was 4.1 nM.

In the case of CCCCNc1nc(N)nc2cnn(Cc3ccc(C4CCN(S(C)(=O)=O)CC4)cc3OC)c12 [Compound 161, N7-butyl-1-{[4-(1-methanesulfonylpiperidin-4-yl)-2-methoxyphenyl]methyl}-1H-pyrazolo[4,3-d]pyrimidine-5,7-diamine], the EC50 (human TLR7) is reported as 107 nM and the EC50 (CD69) is reported as 36 nM.

CCCCNc1nc(N)nc2cnn(Cc3ccc(C4CCN(C)CC4)cc3OC)c12 [Compound 163, N7-butyl-1-{[2-methoxy-4-(1-methylpiperidin-4-yl)phenyl]methyl}-1H-pyrazolo[4,3-d]pyrimidine-5,7-diamine] gave an EC50 (human TLR7) of 5 nM and an EC50 (CD69) of 0.065 nM.

Work on CCC[C@@H](CCO)Nc1nc(N)nc2cnn(Cc3ncc(C4CCN(CCN(C)C)CC4)cc3OC)c12 [Compound 164, (3S)-3-({5-amino-1-[(5-{1-[2-(dimethylamino)ethyl]piperidin-4-yl}-3-methoxypyridin-2-yl)methyl]-1H-pyrazolo[4,3-d]pyrimidin-7-yl}amino)hexan-1-ol] yielded an EC50 (human TLR7) of 41 nM and an EC50 (CD69) of 3.9 nM.

CCC[C@@H](CCO)Nc1nc(N)nc2cnn(Cc3cnc(C4CCNCC4)cc3OC)c12 [Compound 166, (3S)-3-[(5-amino-1-{[4-methoxy-6-(piperidin-4-yl)pyridin-3-yl]methyl}-1H-pyrazolo[4,3-d]pyrimidin-7-yl)amino]hexan-1-ol] was tested, and the EC50 (human TLR7) was 45.5 nM and the EC50 (CD69) was 22.5 nM.

With CCC[C@@H](CCO)Nc1nc(N)nc2cnn(Cc3cnc(C4CCN(C(C)C)CC4)cc3OC)c12 [Compound 167, (3S)-3-{[5-amino-1-({4-methoxy-6-[1-(propan-2-yl)piperidin-4-yl]pyridin-3-yl}methyl)-1H-pyrazolo[4,3-d]pyrimidin-7-yl]amino}hexan-1-ol] the EC50 (human TLR7) was 9.4 nM and the EC50 (CD69) was 0.17 nM.

Work on CCC[C@@H](CCO)Nc1nc(N)nc2cnn(Cc3cnc(C4CCN(C5CCOCC5)CC4)cc3OC)c12 [Compound 168, (3S)-3-{[5-amino-1-({4-methoxy-6-[1-(oxan-4-yl)piperidin-4-yl]pyridin-3-yl}methyl)-1H-pyrazolo[4,3-d]pyrimidin-7-yl]amino}hexan-1-ol] yielded an EC50 (human TLR7) of 6.8 nM and an EC50 (CD69) of 0.47 nM.

Work on CCCCNc1nc(N)nc2cnn(Cc3ncc(C4=CC(C)(C)NC(C)(C)C4)cc3OC)c12 [Compound 169, N7-butyl-1-({5-methoxy-2′,2′,6′,6′-tetramethyl-1′,2′,3′,6′-tetrahydro-[3,4′-bipyridine]-6-yl}methyl)-1H-pyrazolo[4,3-d]pyrimidine-5,7-diamine] yielded an EC50 (human TLR7) of 496 nM and an EC50 (CD69) of 121 nM.

Compound CCCCNc1nc(N)nc2cnn(Cc3ncc(C4CC(C)(C)NC(C)(C)C4)cc3OC)c12 [Compound 170, N7-butyl-1-{[3-methoxy-5-(2,2,6,6-tetramethylpiperidin-4-yl)pyridin-2-yl]methyl}-1H-pyrazolo[4,3-d]pyrimidine-5,7-diamine] has an EC50 (human TLR7) of 209 nM and an EC50 (CD69) of 42.6 nM.

In the case of CCC[C@@H](CCO)Nc1nc(N)nc2cnn(Cc3ncc(N4CCNCC4)cc3OC)c12 [Compound 171, (3S)-3-[(5-amino-1-{[3-methoxy-5-(piperazin-1-yl)pyridin-2-yl]methyl}-1H-pyrazolo[4,3-d]pyrimidin-7-yl)amino]hexan-1-ol], the EC50 (human TLR7) is reported as 309 nM and the EC50 (CD69) is reported as 55.5 nM.

CCC[C@@H](CCO)Nc1nc(N)nc2cnn(Cc3ncc(N4CCN(CC(C)(C)O)CC4)cc3OC)c12 [Compound 172, (3S)-3-{[5-amino-1-({5-[4-(2-hydroxy-2-methylpropyl)piperazin-1-yl]-3-methoxypyridin-2-yl}methyl)-1H-pyrazolo[4,3-d]pyrimidin-7-yl]amino}hexan-1-ol] was tested, and the EC50 (human TLR7) was 19.9 nM and the EC50 (CD69) was 10.8 nM.

CCC[C@@H](CCO)Nc1nc(N)nc2cnn(Cc3cnc(C4CCN(CCO)CC4)cc3OC)c12 [Compound 173, (3S)-3-{[5-amino-1-({6-[1-(2-hydroxyethyl)piperidin-4-yl]-4-methoxypyridin-3-yl}methyl)-1H-pyrazolo[4,3-d]pyrimidin-7-yl]amino}hexan-1-ol] was tested, and the EC50 (human TLR7) was 89.9 nM and the EC50 (CD69) was 4.8 nM.

For CCC[C@@H](CCO)Nc1nc(N)nc2cnn(Cc3cnc(C4CCN(C)CC4)cc3OC)c12 [Compound 174, (3S)-3-[(5-amino-1-{[4-methoxy-6-(1-methylpiperidin-4-yl)pyridin-3-yl]methyl}-1H-pyrazolo[4,3-d]pyrimidin-7-yl)amino]hexan-1-ol], the EC50 (human TLR7) was 11 nM and the EC50 (CD69) was 2.9 nM.

CCC[C@@H](CCO)Nc1nc(N)nc2cnn(Cc3ccc(C4CCCN4)cc3OC)c12 (stereo partly drawn) [Compound 175, (3S)-3-[(5-amino-1-{[2-methoxy-4-(pyrrolidin-2-yl)phenyl]methyl}-1H-pyrazolo[4,3-d]pyrimidin-7-yl)amino]hexan-1-ol] gave an EC50 (human TLR7) of 8.8 nM and an EC50 (CD69) of 0.91 nM.

CCC[C@@H](CCO)Nc1nc(N)nc2cnn(Cc3cnc(C4CCN(CC(C)(C)O)CC4)cc3OC)c12 [Compound 176, (3S)-3-{[5-amino-1-({6-[1-(2-hydroxy-2-methylpropyl)piperidin-4-yl]-4-methoxypyridin-3-yl}methyl)-1H-pyrazolo[4,3-d]pyrimidin-7-yl]amino}hexan-1-ol] showed an EC50 (human TLR7) of 4.8 nM and an EC50 (CD69) of 0.21 nM.

For CCC[C@@H](CCO)Nc1nc(N)nc2cnn(Cc3nnc(C4CCN(C(C)C)CC4)cc3OC)c12 [Compound 177, (3S)-3-{[5-amino-1-({4-methoxy-6-[1-(propan-2-yl)piperidin-4-yl]pyridazin-3-yl}methyl)-1H-pyrazolo[4,3-d]pyrimidin-7-yl]amino}hexan-1-ol], the EC50 (human TLR7) was 579 nM and the EC50 (CD69) was 9.9 nM.

In the case of CCC[C@@H](CCO)Nc1nc(N)nc2cnn(Cc3ncc(C4CCCN4)cc3OC)c12 (stereo partly drawn) [Compound 178, (3S)-3-[(5-amino-1-{[3-methoxy-5-(pyrrolidin-2-yl)pyridin-2-yl]methyl}-1H-pyrazolo[4,3-d]pyrimidin-7-yl)amino]hexan-1-ol], the EC50 (human TLR7) is reported as 279 nM and the EC50 (CD69) is reported as 2 nM.

Compound CCC[C@@H](CCO)Nc1nc(N)nc2cnn(Cc3ncc(C4CCCCN4)cc3OC)c12 (stereo partly drawn) [Compound 179, (3S)-3-[(5-amino-1-{[3-methoxy-5-(piperidin-2-yl)pyridin-2-yl]methyl}-1H-pyrazolo[4,3-d]pyrimidin-7-yl)amino]hexan-1-ol] has an EC50 (human TLR7) of 235 nM and an EC50 (CD69) of 2.8 nM.

Compound CCC[C@@H](CCO)Nc1nc(N)nc2cnn(Cc3ccc(C4CNCCN4)cc3OC)c12 (stereo partly drawn) [Compound 180, (3S)-3-[(5-amino-1-{[2-methoxy-4-(piperazin-2-yl)phenyl]methyl}-1H-pyrazolo[4,3-d]pyrimidin-7-yl)amino]hexan-1-ol] has an EC50 (human TLR7) of 67.9 nM and an EC50 (CD69) of 7.2 nM.
